Assay results: US20120004268A1, “INSECTICIDAL COMPOSITIONS COMPRISING CYCLIC CARBONYLAMIDINES” (BAYER CROPSCIENCE AG, priority 2010, published 2012)

Columns and labels:
Format in all cases: in vivo
Myzus persicae = assay: Foliar application Myzus persicae / bell peppers (spray test); settings: spray on infested bell pepper plants, AMS and/or RME each 1000 ppm in spray liquor where named, 6 days
Experimental: Foliar Application Myzus persicae/Bell Peppers
(§1) To produce a suitable active compound preparation, 1 part by weight of active compound is mixed with the stated amounts of solvent and emulsifier, and the concentrate is diluted with emulsifier-containing water to the desired concentration. For application with ammonium salts and penetrants (rapeseed oil methyl ester 500 EW), these ingredients are each added to the spray liquor in a concentration of 1000 ppm.
Bell pepper plants (Capsicum annuum) heavily infested by the green peach aphid (Myzus persicae) are treated by spraying with the active compound preparation of the desired concentration. After 6 days, the kill in % is determined. 100% means that all aphids have been killed; 0% means that no aphids have been killed.

Aphis gossypii = assay: Foliar application Aphis gossypii / cotton (spray test); settings: spray on infested cotton plants, 6 days
Experimental: Foliar Application Aphis gossypii/Cotton
as §1
Cotton plants (Gossypium hirsutum) heavily infested by the cotton aphid (Aphis gossypii) are treated by spraying with the active compound preparation of the desired concentration. After 6 days, the kill in % is determined 100% means that all aphids have been killed; 0% means that no aphids have been killed.

Bemisia tabaci = Bemisia tabaci (BEMITA spray treatment) on cotton leaf discs; settings: 0.8 ppm active compound; spray on cotton leaf discs infested by whitefly larvae; 7 days
Experimental: Bemisia tabaci (BEMITA Spray Treatment)
To produce a suitable active compound preparation, 1 part by weight of active compound is mixed with the stated amounts of solvents and emulsifier, and the concentrate is diluted with emulsifier-containing water to the desired concentration.
Discs of cotton leaves (Gossypium hirsutum) infested by whitefly (Bemisia tabaci) larvae are sprayed with an active compound preparation of the desired concentration.
After 7 days, the effects in % is determined 100% means that all whiteflies have been killed; 0% means that none of the whiteflies have been killed.

[1] = 0.8 ppm active compound, AMS and/or RME each 1000 ppm in spray liquor where named

Structure (SMILES)	Kill in % after 6d (Myzus persicae; 0.8 ppm active compound)	Kill in % after 6d (Aphis gossypii; [1])	Kill in % after 6d (Myzus persicae; 4 ppm active compound)	Kill in % after 6d (Aphis gossypii; 4 ppm active compound, RME 1000 ppm in spray liquor where named)	Kill in % after 7d (Bemisia tabaci)
CN(Cc1ccc(Cl)nc1)C1=NC(=O)OC1 [I-1, 4-[[(6-chloro-3-pyridinyl)methyl]methylamino]-2(5H)-oxazolone]	0%	35%			
O=C1N=C(N(Cc2ccc(Cl)nc2)C2CC2)CO1 [I-6, 4-[[(6-chloro-3-pyridinyl)methyl]cyclopropylamino]-2(5H)-oxazolone]		0%	15%	40%	40%
